{"source": "patent US7205435B2", "about": "(priority 2001, dated 2007)", "origin": "cited, not measured here", "system": "mouse phrenic nerve", "details": "in vivo"}
{"compound": "CC(C)C[C@H](NP(=O)(O)O[C@@H]1O[C@@H](C)[C@H](O)[C@@H](O)[C@H]1O)C(=O)N[C@@H](Cc1c[nH]c2ccccc12)C(=O)O", "note": "[phosphoramidon]", "values": [{"measurement": "effective dose", "value": 0.2, "unit": "mM"}]}
